Experimental data reported in paper PMC3156940 (Biochimica et biophysica acta, 2011).

Target: KirBac1.1 (His6-KirBac1.1) (Burkholderia pseudomallei, UniProt P83698)
Settings: 200 nM [3H]cholesterol, 0.1% CHAPS, pH 7.5, 37 °C, 2 h

KirBac1.1 (His6-KirBac1.1), sequence (P83698 1-333): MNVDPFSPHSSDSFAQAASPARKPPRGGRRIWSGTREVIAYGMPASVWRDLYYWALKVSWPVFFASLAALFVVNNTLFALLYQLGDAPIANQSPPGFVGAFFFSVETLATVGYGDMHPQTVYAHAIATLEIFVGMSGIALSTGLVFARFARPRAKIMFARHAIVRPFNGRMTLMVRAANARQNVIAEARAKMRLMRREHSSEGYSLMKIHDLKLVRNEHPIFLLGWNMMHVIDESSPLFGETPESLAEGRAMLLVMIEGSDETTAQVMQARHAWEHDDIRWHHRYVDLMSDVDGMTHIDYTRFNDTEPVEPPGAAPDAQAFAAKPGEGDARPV

Row | Compound | competition with [3H]cholesterol
1 | C[C@H](CCCC(C)(C)O)[C@H]1CC[C@H]2[C@@H]3CC=C4C[C@@H](O)CC[C@]4(C)[C@H]3CC[C@]12C [25-hydroxycholesterol] | 25-hydroxycholesterol was a significantly weaker competitor
2 | CC(C)CCC[C@@H](C)[C@H]1CC[C@H]2[C@@H]3CC=C4C[C@H](O)CC[C@]4(C)[C@H]3CC[C@]12C [epicholesterol] | epicholesterol efficiently competed with cholesterol for the channel binding
